Results from patent publication US20200085839A1, “COMBINATION OF IMMUNOTHERAPEUTICS AND BISFLUOROALKYL-1,4-BENZODIAZEPINONE COMPOUNDS FOR TREATING LYMPHOMAS” (Ayala Pharmaceuticals Inc., priority 2018, published 2020).
Entries after “also recorded” stand apart in the source; their conditions may differ.

Key:
[1] = tested on: […] cell lines, comprising 9 subtypes of lymphomas; test: Soluble BCMA by ELISA, lymphoma cell line panel; format: cell-based, human
Description: […] cell lines, comprising 9 subtypes of lymphomas (see Table 1), were seeded at 1×10^5 cells/well in a total volume of 250 μl into a 96-well plate. The cells were cultured in RPMI medium supplemented with 10% FCS. Compound (22) was added to the cell cultures at a concentration of 10 μM, 1 μM, 100 nM, 10 nM, 1 nM, 100 pM, 10 pM, 1 pM, and 100 fM, and cell lines (8 from Hadassah Medical Center, 31 from Eurofins) were incubated at 37° C. for 24 hours with Compound (22). Following incubation, the cells were collected and BCMA levels were evaluated on the cell surface for cell-bound BCMA. Cells were stained with an anti-BCMA antibody (PE anti-human 19F2 BCMA, Biolegend), and cell surface BCMA levels were determined by FACS analysis (Mean Fluorescence Intensity. Soluble BCMA levels were analyzed by ELISA (Human BCMA/TNFRSF17 DuoSet kit: R&D Systems).

GFP^+ LPL line = test: Lysis of GFP expressing tumor cell lines by BCMA-CAR-T cells and/or Compound (1); format: cell-based, human; conditions: BCMA-CAR-T cells and Compound (1) combined; 36 h
From the text: Multiple unique fully human scFvs to BCMA are generated, and CARs based on these scFvs are generated. Multiple scFvs are identified by screening a fully human scFv phage library (>6×10^10 scFvs) with BCMA-Fc fusion protein and then 3T3 cells expressing human BCMA. FACS analysis of phage antibody clones against BCMA-3T3 and parental 3T3 cell lines is used to confirm unique positive clones.
The generated scFvs are used to generate BCMA-targeted CARs. These BCMA-targeted CARs have similar structure, e.g., each has a transmembrane domain comprising a CD28 polypeptide, and an intracellular domain comprising a […] and a co-stimulatory signaling region that comprises a CD28 polypeptide. Each of these BCMA-targeted CARs are cloned into a retroviral vector. These viral vectors are then transduced into HEK 293galv9 viral packaging cells in order to generate a stable packaging line for generation of CAR+ T cells. […] The cell surface expression of BCMA-targeted CARs on human T cells is determined via binding A647 conjugated BCMA-Fc fusion protein. The cell surface expression of BCMA-targeted 28z CAR24 is assessed, and cell surface detection is validated by flow cytometry.
The ability of BCMA-CAR-T cells and Compound (1) to specifically lyse human myeloma cell line (HMCL) is tested. […] At time 0, the percent of GFP tumor line is determined.

Multiple Myeloma = test: Anti-tumor activity of CAR-BCMA T cells and Compound (1) in patients; format: in vivo, human; conditions: CAR-BCMA T cells with a composition comprising Compound (1)
Description: All patients receive 3 doses of 300 mg/m^2 cyclophosphamide and 3 doses of 30 mg/m^2 fludarabine. Chemotherapy is administered because recipient leukocyte depletion enhances the activity of adoptively transferred T cells. Both chemotherapy agents are administered daily on days −5, −4, and −3 before CAR-BCMA T-cell infusion on day 0. CAR-BCMA T cells are administered to each patient with a composition comprising Compound (1). The dose escalation plan calls for an initial dose of 0.3×10^6 CAR^+ T cells/kg with threefold increases to each subsequent dose level.
Myeloma staging is conducted according to the International Uniform Response Criteria for Multiple Myeloma. Toxicity is graded by the Common Terminology Criteria for Adverse Events version 4.02. Two weeks, 1 month, 2 months, 3 months, and 6 months after CAR-BCMA infusion, MM is assessed with standard staging tests.
Autologous peripheral blood mononuclear cells (PBMCs) are cultured with an anti-CD3 monoclonal antibody to induce T-cell proliferation. The cells are transduced with the γ-retroviral vector that encodes that CAR, and 9 days after the initiation of cultures, CAR-BCMA T cells are infused.
CAR-BCMA T cells are detected by flow cytometry after staining with a phycoerythrin-labeled BCMA constant-fragment reagent (PE-BCMA-Fc). CAR-BCMA T cells are also detected by performing quantitative PCR (qPCR). […]

[2] = tested on: BCMA negative CD19 positive Raji Burkett lymphoma cell line; test: Lysis of BCMA negative cells by BCMA-CAR-T cells and/or Compound (1); format: cell-based, human; conditions: combination with BCMA-CAR-T cells or each alone
[3] = tested on: U266 human multiple myeloma cell line; test: Combination index (Chou and Talalay) of Compound (1) with BCMA-CAR-T; format: cell-based; conditions: Compound (1) 10-80 nM with BCMA-CAR-T 10^9 cells
Description: (§1) Drug interaction analysis and the confirmation of synergism is determined by the method of Chou and Talalay. Linear regression analysis of dose-response data is performed using Calcusyn 1.2 software (Biosoft, Cambridge, United Kingdom) to calculate a combination index (CI) for each individual drug combination. To ensure valid statistical analysis, only experimental data for which the linear correlation coefficient of the median-effect plot was more than 0.9 are included. CI values are defined as: […]
(§2) The combination of Compound (1) with BCMA-CAR-T in models of human multiple myeloma in vitro lead to synergistic cell killing. Specifically, Compound (1) when used at concentrations between 10-80 nM (concentrations that are relevant in patients) in combination with BCMA-CAR-T at concentrations of 10^9 cells produce synergistic cell killing in the U266 and RPMI-8226 human multiple myeloma cell lines.

[4] = tested on: RPMI-8226 human multiple myeloma cell line; test: as above; format: cell-based; conditions: Compound (1) 10-80 nM with BCMA-CAR-T 10^9 cells
Description: as §1, §2

| SMILES | soluble BCMA ([1]; cell lines derived from Mantle Cell Lymphoma, DLBCL, Burkitt's Lymphoma, B-cell Lymphoma, 24 h) | shedding ([1]; certain lymphomas) | BCMA shedding ([1]; lymphoma cells) | soluble BCMA ([1]; some Lymphoma/Leukemia cell lines) | specific killing of GFP tumor cells (GFP^+ LPL line) | anti-tumor response (Multiple Myeloma) | lysis of BCMA negative cells [2] | cell killing, combination index (CI) class [3] | cell killing, combination index (CI) class [4] |
| --- | --- | --- | --- | --- | --- | --- | --- | --- | --- |
| Cc1cccc2c1NC(=O)[C@@H](NC(=O)[C@H](CCC(F)(F)F)[C@H](CCC(F)(F)F)C(N)=O)N=C2c1cccc(F)c1 [Compound (22), (2R,3S)—N-((3S)-5-(3-fluorophenyl)-9-methyl-2-oxo-2,3-dihydro-1H-1,4-benzodiazepin-3-yl)-2,3-bis(3,3,3-trifluoropropyl)succinamide] | reduced soluble BCMA | abrogates shedding | decreases BCMA shedding from some lymphomas; also recorded: inhibits BCMA shedding | Compound (22) decreases soluble BCMA in some Lymphoma/Leukemia cell lines | – | – | – | – | – |
| CN1C(=O)[C@@H](NC(=O)[C@H](CCC(F)(F)F)[C@H](CCC(F)(F)F)C(N)=O)N=C(c2ccccc2)c2ccccc21 [Compound 1, (2R,3S)—N-((3S)-1-methyl-2-oxo-5-phenyl-2,3-dihydro-1H-1,4-benzodiazepin-3-yl)-2,3-bis(3,3,3-trifluoropropyl)succinamide] | – | – | – | – | specifically killed more cells of the GFP^+ LPL line than either treatment alone | improved anti-tumor response compared to either BCMA targeted CAR-T or Compound (1) treatment alone | neither the BCMA-CAR-T cells and Compound (1) combination nor each alone lyses | synergistic (0.3 < CI ≤ 0.9) | synergistic (0.3 < CI ≤ 0.9) |
